In US20240150298A1, “ANTIBACTERIAL COMPOUNDS” (Blacksmith Medicines, Inc., priority 2021, published 2024):
≈ marks a conversion by molar mass, not a printed value.

Tests used:
P. aeruginosa 209 PAO1 = test: Bacterial susceptibility testing, MIC by broth microdilution (CLSI); type: cell-based; conditions: Pseudomonas aeruginosa, PAO1, broth microdilution, 35° C., 18-24 h; read-out: MIC P. aeruginosa 209 PAO1
Method in brief: (§1)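 Broth microdilution per CLSI in cation-adjusted Mueller-Hinton broth, inoculum 3×10^5–7×10^5 CFU/mL, 2-fold serial drug dilutions in DMSO. Incubated in ambient air at 35° C for 18-24 h. MIC taken as lowest concentration preventing visible growth (OD600 nm<0.05).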

P. aeruginosa ATCC27835 = test: as above; type: cell-based; conditions: Pseudomonas aeruginosa, ATCC27835, broth microdilution, 35° C., 18-24 h; read-out: MIC P. aeruginosa ATCC27835
Method in brief: as §1

K. pneumoniae ATCC13883 = test: as above; type: cell-based; conditions: Klebsiella pneumoniae, ATCC13883, broth microdilution, 35° C., 18-24 h; read-out: MIC K. pneumoniae ATCC13883
Method in brief: as §1

P. aeruginosa LpxC = biological target: T1, P. aeruginosa LpxC (Pseudomonas aeruginosa, UniProt P47205); test: LpxC Binding Assay (Rapid Fire MS assay); type: biochemical
T1 sequence (P47205 1-303): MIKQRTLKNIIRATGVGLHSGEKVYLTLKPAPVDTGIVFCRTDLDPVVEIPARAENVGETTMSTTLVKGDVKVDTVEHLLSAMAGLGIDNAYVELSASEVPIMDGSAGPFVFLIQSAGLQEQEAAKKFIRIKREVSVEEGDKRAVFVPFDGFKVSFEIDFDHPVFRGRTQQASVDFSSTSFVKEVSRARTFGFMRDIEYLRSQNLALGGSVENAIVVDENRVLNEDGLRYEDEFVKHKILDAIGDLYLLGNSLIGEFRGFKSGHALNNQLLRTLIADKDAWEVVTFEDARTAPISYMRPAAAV
Protocol: (§2) IC50 values against E. coli and P. aeruginosa LpxC are determined using a Rapid Fire MS assay as previously described J. Med. Chem. 2012, 55, 1662-1670.

E. coli LpxC = E. coli LpxC (Escherichia coli, UniProt P0A725); test: LpxC Binding Assay (Rapid Fire MS assay); type: biochemical
Protocol: as §2

K. pneumoniae LpxC = K. pneumoniae LpxC (Klebsiella pneumoniae subsp. pneumoniae, UniProt A6T4N9); test: LpxC Binding Assay (Rapid Fire MS assay); type: biochemical
E. coli ATCC25922 = test: Bacterial susceptibility testing, MIC by broth microdilution (CLSI); type: cell-based; conditions: Escherichia coli, ATCC25922, broth microdilution, 35° C., 18-24 h; read-out: MIC E. coli ATCC25922
Method in brief: as §1

Chain of K. pneumoniae LpxC (A6T4N9 whole entry): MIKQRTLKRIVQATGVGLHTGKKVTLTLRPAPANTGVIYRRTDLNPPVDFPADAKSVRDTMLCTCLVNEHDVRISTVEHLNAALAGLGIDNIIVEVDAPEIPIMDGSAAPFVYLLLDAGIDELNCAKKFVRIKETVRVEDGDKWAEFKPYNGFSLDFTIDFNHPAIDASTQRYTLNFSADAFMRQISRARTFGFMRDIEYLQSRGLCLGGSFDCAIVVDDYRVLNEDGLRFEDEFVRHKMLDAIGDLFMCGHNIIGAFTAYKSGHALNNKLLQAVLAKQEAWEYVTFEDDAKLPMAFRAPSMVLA
Chain of E. coli LpxC (P0A725 whole entry): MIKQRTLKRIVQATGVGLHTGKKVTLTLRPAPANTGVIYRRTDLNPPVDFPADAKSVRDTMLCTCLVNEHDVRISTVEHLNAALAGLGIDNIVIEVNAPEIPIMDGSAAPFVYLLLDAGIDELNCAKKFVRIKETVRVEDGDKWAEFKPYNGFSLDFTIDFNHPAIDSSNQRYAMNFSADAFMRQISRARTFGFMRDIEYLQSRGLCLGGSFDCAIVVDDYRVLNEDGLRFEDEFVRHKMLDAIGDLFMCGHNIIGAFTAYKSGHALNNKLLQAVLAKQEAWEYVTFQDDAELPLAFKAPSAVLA

| SMILES | MIC (P. aeruginosa 209 PAO1) | MIC (P. aeruginosa ATCC27835) | MIC (K. pneumoniae ATCC13883) | IC50 (P. aeruginosa LpxC) | IC50 (E. coli LpxC) | IC50 (K. pneumoniae LpxC) | MIC (E. coli ATCC25922) |
| --- | --- | --- | --- | --- | --- | --- | --- |
| C[C@H](O)c1nccn1[C@@H](/C=C/c1ccc(-c2ccc(C3CC(N4CC(O)C4)C3)cc2)cc1)CO (stereo partly drawn) [Compound 38, 1-(3-(4′-((S,E)-4-hydroxy-3-(2-((S)-1-hydroxyethyl)-1H-imidazol-1-yl)but-1-en-1-yl)-[1,1′-biphenyl]-4-yl)cyclobutyl)azetidin-3-ol] | 2 µg/mL (≈ 4.35 µM) | 2 µg/mL (≈ 4.35 µM) | 2 µg/mL (≈ 4.35 µM) | 27.5 nM | 0.9 nM | 1.6 nM | – |
| C[C@H](O)c1nccn1[C@@H](/C=C(\F)c1ccc(-c2ccc(OCC(N)CO)cc2)cc1)CO (mixture of isomers) [Compound 11] | 1 µg/mL (≈ 2.26 µM) | 2 µg/mL (≈ 4.53 µM) | 16 µg/mL (≈ 36.2 µM) | 31.3 nM | 2.7 nM | 4 nM | 4 µg/mL (≈ 9.06 µM) |
| C[C@H](O)c1nccn1[C@@H](/C=C/c1ccc(-c2ccc(O[C@H]3COC[C@@H]3N)cc2)cc1)CO (racemic) [Compound 34, (S,E)-4-(4′-(((trans)-4-aminotetrahydrofuran-3-yl)oxy)-[1,1′-biphenyl]-4-yl)-2-(2-((S)-1-hydroxyethyl)-1H-imidazol-1-yl)but-3-en-1-ol] | 0.5 µg/mL (≈ 1.15 µM) | 4 µg/mL (≈ 9.18 µM) | 2 µg/mL (≈ 4.59 µM) | 18.9 nM | 1.1 nM | 1.9 nM | – |
| C[C@H](O)c1nccn1[C@@H](/C=C/c1ccc(-c2ccc(OCCN(CCO)CCO)cc2)cc1)CO [Compound 28, 2,2′-((2-((4′—((S,E)-4-hydroxy-3-(2-((S)-1-hydroxyethyl)-1H-imidazol-1-yl)but-1-en-1-yl)-[1,1′-biphenyl]-4-yl)oxy)ethyl)azanediyl)bis(ethan-1-ol)] | 4 µg/mL (≈ 8.31 µM) | 4 µg/mL (≈ 8.31 µM) | 16 µg/mL (≈ 33.2 µM) | 36.9 nM | 2.6 nM | 4.3 nM | 4 µg/mL (≈ 8.31 µM) |
| C[C@H](O)c1nccn1[C@@H](/C=C/c1ccc(-c2ccc(OC3CCN(CCO)CC3)cc2)cc1)CO [Compound 17, (S,E)-2-(2-((S)-1-hydroxyethyl)-1H-imidazol-1-yl)-4-(4′-((1-(2-hydroxyethyl)piperidin-4-yl)oxy)-[1,1′-biphenyl]-4-yl)but-3-en-1-ol] | 4 µg/mL (≈ 8.38 µM) | 4 µg/mL (≈ 8.38 µM) | 16 µg/mL (≈ 33.5 µM) | 66.4 nM | 4.2 nM | 6.3 nM | 4 µg/mL (≈ 8.38 µM) |
| C[C@H](O)c1nccn1[C@@H](/C=C/c1ccc(-c2ccc(OC[C@@H](O)CN(C)C)cc2)cc1)CO [Compound 26, (S,E)-4-(4′-((S)-3-(dimethylamino)-2-hydroxypropoxy)-[1,1′-biphenyl]-4-yl)-2-(2-((S)-1-hydroxyethyl)-1H-imidazol-1-yl)but-3-en-1-ol] | 4 µg/mL (≈ 8.86 µM) | 8 µg/mL (≈ 17.7 µM) | 2 µg/mL (≈ 4.43 µM) | 17.4 nM | 0.6 nM | 1.4 nM | – |
| C[C@H](O)c1nccn1[C@@H](/C=C/c1ccc(-c2ccc(OC[C@@H](O)CO)cc2)cc1)CO [Compound 24, (S)-3-((4′-((S,E)-4-hydroxy-3-(2-((S)-1-hydroxyethyl)-1H-imidazol-1-yl)but-1-en-1-yl)-[1,1′-biphenyl]-4-yl)oxy)propane-1,2-diol] | 2 µg/mL (≈ 4.71 µM) | 2 µg/mL (≈ 4.71 µM) | 8 µg/mL (≈ 18.8 µM) | 17.5 nM | 0.5 nM | 1.1 nM | 2 µg/mL (≈ 4.71 µM) |
| C[C@H](O)c1nccn1[C@@H](/C=C/c1ccc(-c2ccc(OC[C@@H](O)CO)cc2F)cc1)CO [Compound 32, (S)-3-((2-fluoro-4′-((S,E)-4-hydroxy-3-(2-((S)-1-hydroxyethyl)-1H-imidazol-1-yl)but-1-en-1-yl)-[1,1′-biphenyl]-4-yl)oxy)propane-1,2-diol] | 4 µg/mL (≈ 9.04 µM) | 4 µg/mL (≈ 9.04 µM) | 8 µg/mL (≈ 18.1 µM) | 13.4 nM | 1 nM | 1.8 nM | 2 µg/mL (≈ 4.52 µM) |
| CCOCC(O)COc1ccc(-c2ccc(/C=C/[C@@H](CO)n3ccnc3[C@H](C)O)cc2)cc1 (mixture of isomers) [Compound 36, (2S,E)-4-(4′-(3-ethoxy-2-hydroxypropoxy)-[1,1′-biphenyl]-4-yl)-2-(2-((S)-1-hydroxyethyl)-1H-imidazol-1-yl)but-3-en-1-ol] | 2 µg/mL (≈ 4.42 µM) | 4 µg/mL (≈ 8.84 µM) | 1 µg/mL (≈ 2.21 µM) | 21.3 nM | < 0.5 nM | 0.8 nM | – |
| C[C@H](O)c1nccn1[C@@H](/C=C/c1ccc(-c2ccc(OCC(N)CO)cc2)cc1)CCO (mixture of isomers) [Compound 19, (3R,E)-5-(4′-(2-amino-3-hydroxypropoxy)-[1,1′-biphenyl]-4-yl)-3-(2-((S)-1-hydroxyethyl)-1H-imidazol-1-yl)pent-4-en-1-ol] | 4 µg/mL (≈ 9.14 µM) | 4 µg/mL (≈ 9.14 µM) | 64 µg/mL (≈ 146 µM) | 62.3 nM | 5.1 nM | 8 nM | 8 µg/mL (≈ 18.3 µM) |
| C[C@H](O)c1nccn1C/C=C/c1ccc(-c2ccc(OC3CCN(CCO)CC3)cc2)cc1 [Compound 1, (S,E)-2-(4-((4′-(3-(2-(1-hydroxyethyl)-1H-imidazol-1-yl)prop-1-en-1-yl)-[1,1′-biphenyl]-4-yl)oxy)piperidin-1-yl)ethan-1-ol] | 4 µg/mL (≈ 8.94 µM) | 4 µg/mL (≈ 8.94 µM) | 1 µg/mL (≈ 2.23 µM) | 81 nM | 25.8 nM | – | 1 µg/mL (≈ 2.23 µM) |
| C[C@H](O)c1nccn1[C@@H](/C=C/c1ccc(-c2ccc(OC[C@H](O)CN)cc2)cc1)CO [Compound 29, (S,E)-4-(4′-((R)-3-amino-2-hydroxypropoxy)-[1,1′-biphenyl]-4-yl)-2-(2-((S)-1-hydroxyethyl)-1H-imidazol-1-yl)but-3-en-1-ol] | 8 µg/mL (≈ 18.9 µM) | 4 µg/mL (≈ 9.44 µM) | 64 µg/mL (≈ 151 µM) | 120 nM | 5.9 nM | 9.1 nM | 32 µg/mL (≈ 75.6 µM) |
| C[C@H](O)c1nccn1[C@@H](/C=C(\F)c1ccc(-c2ccc(OCC(O)CN)cc2)cc1)CO (single isomer, unassigned) [Compound 30, (S,Z)-4-(4′-((R)-3-amino-2-hydroxypropoxy)-[1,1′-biphenyl]-4-yl)-4-fluoro-2-(2-((S)-1-hydroxyethyl)-1H-imidazol-1-yl)but-3-en-1-ol; or (S,Z)-4-(4′-((S)-3-amino-2-hydroxypropoxy)-[1,1′-biphenyl]-4-yl)-4-fluoro-2-(2-((S)-1-hydroxyethyl)-1H-imidazol-1-yl)but-3-en-1-ol] | 8 µg/mL (≈ 18.1 µM) | 8 µg/mL (≈ 18.1 µM) | 32 µg/mL (≈ 72.5 µM) | 79.5 nM | 5 nM | 7.6 nM | 16 µg/mL (≈ 36.2 µM) |
| C[C@H](O)c1nccn1[C@@H](/C=C/c1ccc(-c2ccc(OCC(CO)CO)cc2)cc1)CO [Compound 33, 2-(((4′-((S,E)-4-hydroxy-3-(2-((S)-1-hydroxyethyl)-1H-imidazol-1-yl)but-1-en-1-yl)-[1,1′-biphenyl]-4-yl)oxy)methyl)propane-1,3-diol] | 2 µg/mL (≈ 4.56 µM) | 4 µg/mL (≈ 9.12 µM) | 8 µg/mL (≈ 18.2 µM) | 11.9 nM | 1 nM | 1.6 nM | – |
| C[C@H](O)c1nccn1[C@@H](/C=C/c1ccc(-c2ccc(O[C@H]3COC[C@@H]3O)cc2)cc1)CO (racemic) [Compound 35, (trans)-4-((4′-((S,E)-4-hydroxy-3-(2-((S)-1-hydroxyethyl)-1H-imidazol-1-yl)but-1-en-1-yl)-[1,1′-biphenyl]-4-yl)oxy)tetrahydrofuran-3-ol] | 1 µg/mL (≈ 2.29 µM) | 4 µg/mL (≈ 9.16 µM) | 2 µg/mL (≈ 4.58 µM) | 8.2 nM | < 0.5 nM | 0.9 nM | – |
| C[C@H](O)c1nccn1[C@@H](/C=C/c1ccc(-c2ccc(C3CC(O)C3)cc2)cc1)CO (stereo partly drawn) [Compound 39, 3-(4′-((S,E)-4-hydroxy-3-(2-((S)-1-hydroxyethyl)-1H-imidazol-1-yl)but-1-en-1-yl)-[1,1′-biphenyl]-4-yl)cyclobutan-1-ol] | 1 µg/mL (≈ 2.47 µM) | 4 µg/mL (≈ 9.89 µM) | 0.5 µg/mL (≈ 1.24 µM) | 12.6 nM | < 0.5 nM | 0.6 nM | – |
| C[C@H](O)c1nccn1[C@@H](/C=C/c1ccc(-c2ccc(C3CC(NCCC#N)C3)cc2)cc1)CO (stereo partly drawn) [Compound 37, 3-((3-(4′-((S,E)-4-hydroxy-3-(2-((S)-1-hydroxyethyl)-1H-imidazol-1-yl)but-1-en-1-yl)-[1,1′-biphenyl]-4-yl)cyclobutyl)amino)propanenitrile] | 2 µg/mL (≈ 4.38 µM) | 4 µg/mL (≈ 8.76 µM) | 0.5 µg/mL (≈ 1.1 µM) | 15.2 nM | < 0.5 nM | 0.7 nM | – |
